The values that follow are results of earlier work, collected in patent publication US20040076968A1, “Method for detecting pre-disposition to hepatotoxicity” (priority 2000, published 2004).

The target of the data set is T1, UGT1A6*2 allelic variant (Homo sapiens, UniProt P19224, R184S/T181A).
T1 sequence (P19224 27-532 T181A/R184S): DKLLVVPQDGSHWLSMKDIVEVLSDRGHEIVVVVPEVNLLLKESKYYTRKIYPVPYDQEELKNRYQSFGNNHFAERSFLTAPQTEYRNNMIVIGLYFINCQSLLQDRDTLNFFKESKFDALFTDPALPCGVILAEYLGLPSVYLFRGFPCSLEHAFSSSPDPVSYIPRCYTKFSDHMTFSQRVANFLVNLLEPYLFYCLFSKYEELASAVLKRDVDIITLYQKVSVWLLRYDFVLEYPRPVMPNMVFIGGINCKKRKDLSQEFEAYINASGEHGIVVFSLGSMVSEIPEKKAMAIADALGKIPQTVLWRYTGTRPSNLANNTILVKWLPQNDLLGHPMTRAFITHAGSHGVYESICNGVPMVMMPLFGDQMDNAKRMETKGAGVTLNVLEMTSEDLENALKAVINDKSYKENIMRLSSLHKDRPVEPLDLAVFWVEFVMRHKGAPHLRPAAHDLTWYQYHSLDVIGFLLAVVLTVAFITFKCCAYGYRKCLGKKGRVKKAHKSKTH
Conditions: cited from earlier work; for metabolism compared with wild-type isoenzyme (in words): UGT1A6*2 expressed in COS cells.

For `Oc1cccc2ccccc12` [1-Naphtol], the “metabolism compared with wild-type isoenzyme (in words)” value is reported as “normal levels”.
Regarding `Oc1cccc(I)c1` [3iodophenol], the “metabolism compared with wild-type isoenzyme (in words)” value is “normal levels”.
As to `Cc1cc(=O)oc2cc(O)ccc12` [7-hydroxy-4-methylcoumarin], the “metabolism compared with wild-type isoenzyme (in words)” value is on record as “normal levels”.
For `O=c1ccc2ccc(O)cc2o1` [7-hydroxycoumarin], the “metabolism compared with wild-type isoenzyme (in words)” value is reported as “normal levels”.
Turning to `COc1ccc(O)c(C(C)(C)C)c1` [butylated hydroxy anisole], the “rate of metabolism relative to the wild-type isoenzyme” value (pH 6.4) is 27-75%.
Regarding `N[C@@H](Cc1ccc(O)c(O)c1)C(=O)O` [levodopa], the “activity of UGT1A6 alleles Thr181Ala and Arg184Ser for the substrate” value is recorded as “reduced activity”.
